Reference: patent US20190224201A1, “PHARMACEUTICAL COMPOSITION COMPRISING NEPTINIB OR SALT THEREOF AND METHOD FOR CONTROLLING IMPURITY THEREOF” (SHENZHEN NEPTUNUS PHARMACEUTICAL RESEARCH INSTITUTE CO., …, priority 2016, published 2019)

How the values were obtained:
Assay type in all cases: physicochemical
[1] = API and excipients compatibility study (10 days of stress testing of mixed powders)
[2] = Risk assessment of the API and excipients compatibility
Source text: Level 1 (low risk): maximum single impurity is less than 0.1% and total impurity is less than 0.2%;
Level 2 (medium risk): maximum single impurity is 0.1-0.2% or total impurity is 0.2%-0.4%;
Level 3 (high risk): maximum single impurity is more than 0.2% or total impurity is more than 0.4%.

[3] = Accelerated stability test, detection of impurity A and total impurity by HPLC; settings: active ingredient alone, accelerated stability test at 40° C. for 6 months
Source text: The method for detecting impurity A and total impurity was shown as follows:
Equipment: Agilent 1260 series;
Column: XBridge Shield RP18 column (100×4.6 mm, 3.5 μm);
Mobile phase A: 0.05 mol/L potassium dihydrogen phosphate solution (adjusted to pH 7.2 with sodium hydroxide solution)-acetonitrile (20:80);
Mobile phase B: 0.05 mol/L potassium dihydrogen phosphate solution (adjusted to pH 7.2 with sodium hydroxide solution)-acetonitrile (40:60);
Detection wavelength: 247 nm;
Column temperature: 30° C.;
Solvent: acetonitrile-water (50:50).

[4] = Day 10, Illumination (4500 ± 5001x)

CCOc1cc2ncnc(Nc3ccc(F)c(Cl)c3)c2cc1NC(=O)/C=C/CN(C)C [API, (E)-N-(4-((3-chloro-4-fluorophenyl)amino)-7-ethoxyquinazolin-6-yl)-4-(dimethylamino)but-2-enamide]
Maximum single impurity (%) ([1]; Day 0): 0.02%
Total impurity (%) ([1]; Day 0): 0.02%
Maximum single impurity (%) ([1]; Day 10, 60° C. ± 2° C.): 0.02%
Total impurity (%) ([1]; Day 10, 60° C. ± 2° C.): 0.04%
Maximum single impurity (%) [1, 4]: 0.12%
Total impurity (%) [1, 4]: 0.14%
Maximum single impurity (%) ([1]; Day 10, RH75% ± 5%): 0.02%
Total impurity (%) ([1]; Day 10, RH75% ± 5%): 0.02%
Maximum single impurity (%) ([1]; Day 10, RH92.5% ± 5%): 0.02%
Total impurity (%) ([1]; Day 10, RH92.5% ± 5%): 0.02%
Risk level assessment value 60° C. ([2]; 60° C., 10 days stress testing): 1 (Level 1 (low risk): maximum single impurity is less than 0.1% and total impurity is less than 0.2%)
Risk level assessment value Illumination ([2]; Illumination, 10 days stress testing): 2 (Level 2 (medium risk): maximum single impurity is 0.1-0.2% or total impurity is 0.2%-0.4%)
Risk level assessment value RH75% ([2]; RH75%, 10 days stress testing): 1 (Level 1 (low risk): maximum single impurity is less than 0.1% and total impurity is less than 0.2%)
Risk level assessment value RH92.5% ([2]; RH92.5%, 10 days stress testing): 1 (Level 1 (low risk): maximum single impurity is less than 0.1% and total impurity is less than 0.2%)
Risk level assessment value Total ([2]; sum over RH75%, RH92.5%, 60° C., Illumination): 5
change in the content of impurities in the active ingredient [3]: no significant change
